In US6482837B1 (priority 1998, dated 2002):
Like-named read-outs stand apart in the source and are kept apart here.

Columns and labels:
[1] = human, in vivo
[2] = test system: M3 versus M1 and M2 receptors; conditions: cited from earlier work
guinea pig bladder [3] = conditions: in vivo; cited from earlier work
M3 receptor = M3 receptor (Homo sapiens, UniProt P20309); conditions: cited from earlier work
[4] = human, in vivo; cited from earlier work
[5] = test system: muscarinic receptors in heart and submaxillary gland; conditions: in vivo, iv; cited from earlier work
guinea pig bladder [6] = conditions: in vivo; cited from earlier work; remark: listed apart in the source
[7] = in vivo; cited from earlier work
miniature swine bladder = conditions: in vivo
muscarinic receptors [8] = conditions: dog, in vivo; cited from earlier work
muscarinic receptors [9] = conditions: human, in vivo, cited from earlier work
Guinea pig detrusor = type: cell-based
tracheal rings = type: cell-based, guinea pig
lung = conditions: iv

Chain of M3 receptor (P20309 whole entry): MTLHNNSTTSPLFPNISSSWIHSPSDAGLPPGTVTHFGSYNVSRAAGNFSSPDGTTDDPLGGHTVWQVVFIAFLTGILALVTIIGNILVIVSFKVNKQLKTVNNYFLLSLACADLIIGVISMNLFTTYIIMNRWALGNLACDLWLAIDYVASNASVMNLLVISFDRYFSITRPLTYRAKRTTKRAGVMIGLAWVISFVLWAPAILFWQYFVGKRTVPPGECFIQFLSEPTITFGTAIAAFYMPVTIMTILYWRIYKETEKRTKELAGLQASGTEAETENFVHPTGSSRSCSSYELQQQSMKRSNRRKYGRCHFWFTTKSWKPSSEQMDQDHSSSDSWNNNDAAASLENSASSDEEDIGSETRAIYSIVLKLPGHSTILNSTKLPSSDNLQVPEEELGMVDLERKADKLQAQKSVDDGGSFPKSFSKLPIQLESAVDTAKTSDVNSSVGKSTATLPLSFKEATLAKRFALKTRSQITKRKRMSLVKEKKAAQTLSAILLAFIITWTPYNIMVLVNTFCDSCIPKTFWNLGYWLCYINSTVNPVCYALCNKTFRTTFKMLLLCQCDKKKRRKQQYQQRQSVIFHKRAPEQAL

For O=C1OC2(c3ccc(O)cc3Oc3cc(O)ccc32)c2ccccc21 [fluorescein], the “absorbed from the bladder” value [1] was “About 50%”.
In the case of “3-(4-benzylpiperazinyl)-1,1-diphenyl-1-hydroxy-2-propanone”, the “selective for M3 versus M1” value [2] is given as 18 fold, the “selective for M3 versus M2 receptors” value [2] is given as 242 fold and the “separation between bladder function and effect on mydriasis” value (guinea pig bladder [3]) is given as 20 fold. For the same compound, the “separation between bladder function and effect on salivation” value (guinea pig bladder [3]) was 41 fold.
For O[Si](CCCN1CCCCC1)(c1ccc(F)cc1)C1CCCCC1 (centres unmarked) [p-F-HHSiD], the Ki (M3 receptor; read-out: Ki) is given as 28 nM.
In the case of CC(CC(c1ccccc1)c1ccccc1)NC(C)(C)C (centres unmarked) [terodiline, Terodiline], the “Bladder volume at first urge and bladder capacity” value [4] is given as “increased” and the “micturition frequency and incontinence episodes” value [4] is given as “reduced”.
In the case of O=C(OC1CCN(CCBr)CC1)C(c1ccccc1)c1ccccc1 [4-DAMP bromo mustard, N-(2-bromoethyl)-4-piperidinyl diphenylacetate], the “receptors alkylated in both the heart and submaxillary gland” value [5] is listed as “more than 95%”.
In the case of CN(C)CC#CCCC(=O)C(O)(c1ccccc1)C1CCC1 (centres unmarked) [14b, 1-cyclobutyl-7-(dimethylamino)-1-hydroxy-1-phenyl-5-heptyn-2-one], the “duration of action relative to oxybutynin” value (guinea pig bladder [6]) is given as 5 fold.
For CN1[C@@H]2CC[C@H]1C[C@@H](OC(=O)C(CO)c1ccccc1)C2 (some centres unmarked) [atropine], the “accumulation in the heart blocked by preinjection” value [7] is given as 89%.
For COc1ccccc1CNCCCCCCNCCCCCCCCNCCCCCCNCc1ccccc1OC [methoctramine], the Ki (M3 receptor) is listed as 408 nM.
In the case of C[N+]12CCC(CC1)C(OC(=O)C(O)(c1ccccc1)c1ccccc1)C2 (centres unmarked) [MeQNB, methyl quinuclidinyl benzilate], the “Body Temp increase ° C.” value (miniature swine bladder) is reported as 0 °C, the “Heart rate % increase” value (miniature swine bladder) is reported as 0% and the “activity relative to oxybutynin” value (miniature swine bladder; iv) is reported as “about 10 fold”. For the same compound, the “rate constant k+1” value (muscarinic receptors [8]) was 0.6 ± 0.1 mL/pmol/min, the “rate constant k−1” value (muscarinic receptors [8]) was 0.27 ± 0.03 mL/pmol/min and the “rate constant of nonspecific binding” value (muscarinic receptors [9]) was 0.03 min⁻¹. The Kd (muscarinic receptors [9]; read-out: equilibrium dissociation constant kd) was 2 ± 0.5 nM.
In the case of COC(=O)C1=CC[C@@H]2CC[C@H]1N2C [AEME, Anhydroecgonine methyl ester], the “recovery of response to ACh after repeated washings” value (Guinea pig detrusor) is reported as “did not recover”, the “response of tissue to 10^−4M ACh” value (Guinea pig detrusor) is reported as “reduced response of tissue” and the “response to a range of ACh concentrations (up to 2×10^−3M)” value (Guinea pig detrusor) is reported as “attenuated”. The “reversal of attenuation by washing” value (Guinea pig detrusor) was “not reversed”, the cholinergic agonist activity (tracheal rings) was “lacked cholinergic agonist activity” and the “levels at which antimuscarinic properties on tracheal rings were observed (as low as)” value (tracheal rings) was 10^−9 M. The “sensitization to ACh produced by cocaine at 5×10^−6 M” value (tracheal rings) was “reduced the sensitization”, the “type of muscarinic activity in vitro” value (tracheal rings) was “potent non-competitive muscarinic antagonist” and the safety (lung; in vivo) was “wide margin of safety”. For the same compound, the “anticholinergic effects in the lung in vivo” value (lung) was “more sustained and dramatic than anticipated”.
